One compound from patent publication US20250041227A1, “TABLET FORMULATIONS OF RBP4 INHIBITORS AND METHODS OF USE” (BELITE BIO, INC, priority 2021, published 2025) can be followed below.

The test system of the series is male cynomolgus monkeys. As to the kind of experiment: In-life clinical observations (tolerability). The note with it: single PO 5 mg/animal per phase, 6 phases. The class given is in vivo. The text has this: The test system and study design were as follows. A total of 4 male non-naïve cynomolgus monkeys were assigned to the study (age: >2 years old and body weight: 2.5-4 kg). Each animal received a single dose of capsule or tablet at the start of each phase and there were 6 phases in total. The same animals, Animal Nos. C1001, C1002, C1003 and C1004, were used for each phase with a minimum 5-day washout period between dosing for each phase, except for Animal No. C1002, Animal Tattoo No. C1708339, which was replaced by another non-naïve cynomolgus monkey, Animal Tattoo No. C1703319, due to dosing failure that happened in Phase 3. As a result, Animal Tattoo No. C1708339 was used in Phase 1 and 2, Animal Tattoo No. C1703319 was used in Phases 3 to 6. All animals were fasted overnight prior to dosing, food was returned at 4 hours post-dose.
Animals were physically examined prior to study initiation to confirm their health. Clinical observations were performed twice daily (approximately 9:30 a.m. and 4:00 p.m.). Cage-side observations for general health and appearance were also performed. On dosing day, animals were also observed before and after each sample collection time point. General condition, behavior, activity, excretion, respiration or other unusual observations noted throughout the study were recorded.

On to `CC(=O)N1CCc2c(C(=O)N3CCC(c4ccc(F)c(F)c4C(F)(F)F)CC3)n[nH]c2C1` [Compound 1, 1-(3-(4-(3,4-difluoro-2-(trifluoromethyl)phenyl)piperidine-1-carbonyl)-1,4,5,7-tetrahydro-6H-pyrazolo[3,4-c]pyridin-6-yl)ethan-1-one], for which the “adverse effects during the in-life phase” value is on record as “No adverse effects were observed”.
